Experimental data: US20200339544A1 (JOINT STOCK COMPANY "BIOCAD", priority 2017, published 2020)

Columns and labels:
WT EGFR (Wild-Type EGFR) = biological target: T1, WT EGFR (Wild-Type EGFR) (Homo sapiens, UniProt P00533); experiment: Inhibition of WT EGFR kinase activity (ADP-Glo); assay type: biochemical
T1 construct: purchased SignalChem
Summary of the method: (§1)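 Recombinant WT or double-mutant EGFR was incubated with a solution of 0.5 mg/mL peptide substrate and 50 μM ATP for 180 minutes at 37° C. Kinase activity was detected by ADP-Glo luminescence. IC50 values came from a four-parameter logistic fit.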

[1] = test system: A549 (lung adenocarcinoma, WT); experiment: Antiproliferative activity on A549 cells (Alamar Blue); assay type: cell-based; details: Homo sapiens, antiproliferative test
Summary of the method: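 Cells seeded at 5*10^3/well in RPMI-1640 with 2% FBS, attached 16-18 h at 37° C, then exposed to compounds (≤1% DMSO) for 72 h. Alamar Blue added for 3-5 h; fluorescence read at 540/590 nm. IC50 from four-parameter logistic fit.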

HepG2 cells = experiment: General cytotoxicity on HepG2 cells; assay type: cell-based; details: therapeutic index, CC50 HepG2 / IC50 H1975
Summary of the method: (§2)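 HepG2 cells seeded at 2*10^4 cells per well and compounds added in DMEM with 2% FBS for 72 h at 37 °C. Viability read with Alamar Blue and CC50 derived as for IC50. Therapeutic index taken as HepG2 CC50 over H1975 IC50.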

[2] = General cytotoxicity on HepG2 cells; assay type: cell-based; details: human; general cytotoxicity, HepG2 cells, 72 hours, average of several tests
Summary of the method: as §2

[3] = biological target: T2, DM EGFR (DoubleMutantEGFR, L828R/T790M) (Homo sapiens, UniProt P00533, L858R/T790M); experiment: Inhibition of DM EGFR kinase activity (ADP-Glo); assay type: biochemical; details: for IC50: inhibition of kinase activity, EGFR DM (L828R/T790M); for SI, IC50(WT)/IC50(DM): selectivity index, kinase EGFR WT vs EGFR DM
T2 construct: purchased SignalChem
Summary of the method: as §1

[4] = Enzyme stability in human liver S9 fractions; assay type: in vitro ADME; details: 0.5 mg/mL pooled human liver S9 fractions; 10 μM compound; 37° C.; pH 7.4; read-out: Stability in liver S9 fractions, Clint
Summary of the method: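 Compound at 10 μM was incubated at 37 °C with 0.5 mg/mL pooled human liver S9, 2 mM β-NAD and 4 mM MgCl2 in 0.1 M sodium phosphate, pH 7.4, then quenched with acetonitrile and analysed chromatographically. T½ and CLint were derived from the slope of log peak area versus time.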

Structure (SMILES)	IC50 (WT EGFR (Wild-Type EGFR)) [nM]	IC50 [1] [nM]	IC50 [3] [nM]	SI, IC50(WT)/IC50(DM) [3]	Intrinsic clearance in human liver S9 fractions at 10 µM [4] [µL/min/mg]	TI, CC50/IC50 (HepG2 cells)	CC50 at 72 h [2] [nM]
C=CC(=O)Nc1cc(Nc2nccc(C(=O)c3ccc(OCc4ccccc4)cc3)n2)c(OC)cc1N(C)CCN(C)C [EGFR_3365_16, N-(5-((4-(4-(benzyloxy)benzoyl)pyrimidin-2-yl)amino)-2-((2-(dimethylamino)ethyl)(methyl)amino)-4-methoxyphenyl)acrylamide]	154	2210	32.8	4.70	17.9	108	5790
C=CC(=O)Nc1cc(Nc2nccc(C(=O)c3ccc(OC)cc3)n2)c(OC)cc1N(C)CCN(C)C [EGFR_3365_28, N-(2-((2-(dimethylamino)ethyl)(methyl)amino)-4-methoxy-5-((4-(4-methoxybenzoyl)pyrimidin-2-yl)amino)phenyl)acrylamide]	128	3640	6.27	20.33	–	1836	31400
C=CC(=O)Nc1cc(Nc2nccc(C(=O)c3ccc(OCC)cc3)n2)c(OC)cc1N(C)CCN(C)C [EGFR_3365_29, N-(2-((2-(dimethylamino)ethyl)(methyl)amino)-5-((4-(4-ethoxybenzoyl)pyrimidin-2-yl)amino)-4-methoxyphenyl) acrylamide]	202	16000	10.7	18.79	–	1135	30600
C=CC(=O)Nc1cc(Nc2nccc(C(=O)c3ccccc3Br)n2)c(OC)cc1N(C)CCN(C)C [EGFR_3365_12, N-(5-((4-(2-bromobenzoyl)pyrimidin-2-yl)amino)-2-((2-(dimethylamino)ethyl) (methyl)amino)-4-methoxyphenyl)acrylamide]	389	15400	25.5	15.25	–	1051	22600
C=CC(=O)Nc1cc(Nc2nccc(C(=O)c3ccc(OC(C)C)cc3)n2)c(OC)cc1N(C)CCN(C)C [EGFR_3365_31, N-(2-((2-(dimethylamino)ethyl)(methyl)amino)-5-((4-(4-isopropoxybenzoyl)pyrimidin-2-yl)amino)-4-methoxyphenyl) acrylamide]	131	11100	8.65	15.12	–	1293	9490

The next compounds have a lower IC50 (WT EGFR (Wild-Type EGFR)) than those just listed; values first:

IC50 (WT EGFR (Wild-Type EGFR)) [nM]	IC50 [1] [nM]	IC50 [3] [nM]	SI, IC50(WT)/IC50(DM) [3]	Intrinsic clearance in human liver S9 fractions at 10 µM [4] [µL/min/mg]	Structure (SMILES)	TI, CC50/IC50 (HepG2 cells)	CC50 at 72 h [2] [nM]
76.6	6070	14.5	5.29	–	C=CC(=O)Nc1cc(Nc2cc(C(=O)c3ccccc3)ccn2)c(OC)cc1N(C)CCN(C)C [EGFR_3365_3, N-(5-((4-benzoylpyridin-2-yl)amino)-2-((2-(dimethylamino)ethyl)(methyl)amino)-4-methoxyphenyl)acrylamide]	341	15200
60	1410	8.36	7.17	17.8	C=CC(=O)Nc1cc(Nc2cc(C(=O)c3ccc(-c4cnn(C)c4)cc3)ccn2)c(OC)cc1N(C)CCN(C)C [EGFR_3365_85, N-(2-((2-(dimethylamino)ethyl)(methyl)amino)-4-methoxy-5-((4-(4-(1-methyl-1H-pyrazol-4-yl)benzoyl)pyridin-2-yl)amino)phenyl) acrylamide]	153	21200
25.4	6900	1.41	18.02	–	C=CC(=O)Nc1cc(Nc2nccc(C(=O)c3cc4ccccc4n3C)n2)c(OC)cc1N(C)CCN(C)C [EGFR_3365_94, N-(2-((2-(dimethylamino)ethyl) (methyl)amino)-4-methoxy-5-((4-(1-methyl-1H-indole-2-carbonyl)pyrimidin-2-yl)amino)phenyl)acrylamide]	1801	12000
